Data taken from patent publication US20260184702A1, “SYNTHESIS, PHARMACOLOGY AND USE OF NEW WATER-SOLUBLE AND SELECTIVE FMS-LIKE TYROSINE KINASE3 (FLT3) INHIBITORS” (Universität Regensburg, priority 2022, published 2026).
Converted amounts (≈) assume the structure as drawn.

Legend:
[1] = test system: MOLM-13 (acute myeloid leukemia); settings: Sellmer et al. 2020; cited from earlier work
[2] = Solubility test by UV-Vis spectroscopy of saturated solutions; type: physicochemical; settings: for Solubility Ethanol [g/L] / Solubility Water [g/L]: saturated solution; for Solubility Water [g/L]: ultrapure water
How it was run: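 Solubility was measured by UV-Vis spectroscopy on an Agilent Cary 60 over 800-200 nm, using a scan rate of 300.0 nm/min, a 0.50 nm data interval, 0.10 s averaging time and a 10 mm cuvette. Filtered saturated supernatants were diluted into water:ethanol, read at the long-wave absorbance maximum against a calibration curve of at least 6 concentrations, in triplicate.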

[3] = test system: MONO-MAC-1 (acute monocytic leukemia); settings: Sellmer et al. 2020; cited from earlier work
[4] = test system: EOL-1 (acute myeloid eosinophilic leukemia); settings: Sellmer et al. 2020; cited from earlier work
[5] = test system: subcutaneous MV4-11 CDX model; settings: female, NOD/SCID, mouse, in vivo, 5 days
[6] = test system: subcutaneous MV4-11 CDX model; experiment: In vivo efficacy study in subcutaneous MV4-11 CDX model in NOD/SCID mice; settings: 50 mg/kg po daily 5 days
[7] = test system: MONO-MAC-6 (acute monocytic leukemia); settings: Sellmer et al. 2020; cited from earlier work

In the case of `CC(C)(C)c1cc(NC(=O)Nc2ccc(-c3cn4c(n3)sc3cc(OCCN5CCOCC5)ccc34)cc2)no1` [Quizartinib, reference compound], the IC50 [1] is listed as 0.007 µM, the solubility ([2]; DMSO, organic solvent or mixture, solvent DMSO, read-out: Solubility DMSO) is listed as 33.2 mg/mL (≈ 59.2 mM) and the “Solubility Ethanol [g/L]” value [2] is listed as “no or at most very poor solubility”. For the same compound, the “Solubility Ethanol [g/L]” value ([2]; listed as AC220) was “Practical”, the “Solubility Water [g/L]” value [2] was “no or at most very poor solubility” and the “Solubility Water [g/L]” value ([2]; listed as AC220) was “Practical”. The IC50 [3] was 0.006 µM, the IC50 [4] was 0.0001 µM and the “study day after which mice had to be sacrificed” value [5] was 6 days. The “first death(s) (day of study)” value [6] was 600000 s, the “number of living subjects, day of study 5” value ([6]; 5 mice) was 5 and the “number of living subjects, day of study 6” value ([6]; 5 mice) was 5. For the same compound, the “number of living subjects, day of study 8” value ([6]; 5 mice) was 3, the “number of living subjects, day of study 13” value ([6]; 5 mice) was 3 and the “number of living subjects, day of study 26” value ([6]; 5 mice) was 3. For the same compound, the “number of living subjects, day of study 36” value ([6]; 5 mice) was 3 and the IC50 [7] was 0.004 µM.
